# Assay results from PubChem BioAssay AID256 (DTP/NCI, 2004).
# Toxic doses and inconclusive results are not listed.
# Tested on: CD2F1 mice, L1210 leukemia ip, survival T/C
# Test: NCI In Vivo Anticancer Drug Screen. Data for tumor model L1210 Leukemia (intraperitoneal) in CD2F1 (CDF1) mice
# Settings: higher = longer survival
# How it was run: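 Activity against a transplanted murine tumor was judged by comparing the compound group with a vehicle group. The outcome in the treated animals was divided by that in the controls.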
# [1] = endpoint: mean survival time, dose: 100.0 mg/kg/injection, schedule: Q04DX003 (ip), vehicle: saline with Tween-80
# [2] = endpoint: mean survival time, dose: 200.0 mg/kg/injection, schedule: Q04DX003 (ip), vehicle: saline with Tween-80
# [3] = endpoint: mean survival time, dose: 100.0 mg/kg/injection, schedule: Q04DX002 (ip), vehicle: saline
# [4] = endpoint: mean survival time, dose: 200.0 mg/kg/injection, schedule: Q04DX002 (ip), vehicle: saline
# [5] = endpoint: mean survival time, dose: 400.0 mg/kg/injection, schedule: Q04DX002 (ip), vehicle: saline
# [6] = endpoint: mean survival time, dose: 100.0 mg/kg/injection, schedule: Q01DX001 (ip), vehicle: saline
# [7] = endpoint: mean survival time, dose: 100.0 mg/kg/injection, schedule: Q01DX009 (ip), vehicle: other
# [8] = endpoint: mean survival time, dose: 200.0 mg/kg/injection, schedule: Q01DX009 (ip), vehicle: other
# [9] = endpoint: mean survival time, dose: 100.0 mg/kg/injection, schedule: Q01DX001 (ip), vehicle: saline with Tween-80
# [10] = endpoint: mean survival time, dose: 200.0 mg/kg/injection, schedule: Q01DX001 (ip), vehicle: saline with Tween-80
# [11] = endpoint: mean survival time, dose: 200.0 mg/kg/injection, schedule: Q01DX001 (ip), vehicle: saline
# [12] = endpoint: mean survival time, dose: 400.0 mg/kg/injection, schedule: Q01DX001 (ip), vehicle: saline
# [13] = endpoint: mean survival time, dose: 400.0 mg/kg/injection, schedule: Q01DX001 (ip), vehicle: saline with Tween-80
# [14] = endpoint: mean survival time, dose: 100.0 mg/kg/injection, schedule: Q04DX002 (ip), vehicle: saline with Tween-80
# [15] = endpoint: mean survival time, dose: 200.0 mg/kg/injection, schedule: Q04DX002 (ip), vehicle: saline with Tween-80
# [16] = endpoint: mean survival time, dose: 400.0 mg/kg/injection, schedule: Q04DX002 (ip), vehicle: saline with Tween-80
# [17] = endpoint: mean survival time, dose: 100.0 mg/kg/injection, schedule: Q01DX009 (ip), vehicle: saline with Tween-80
# [18] = endpoint: mean survival time, dose: 200.0 mg/kg/injection, schedule: Q01DX009 (ip), vehicle: saline with Tween-80
# [19] = endpoint: mean survival time, dose: 400.0 mg/kg/injection, schedule: Q01DX009 (ip), vehicle: saline with Tween-80
# [20] = endpoint: mean survival time, dose: 400.0 mg/kg/injection, schedule: Q04DX003 (ip), vehicle: saline with Tween-80
smiles,measurement,setting,value
Nc1nc([Se]c2nc(N)nc3c2ncn3C2OC(CO)C(O)C2O)c2ncn(C3OC(CO)C(O)C3O)c2n1 (stereo unspecified),T/C,"endpoint: median survival time, dose: 36.0 mg/kg/injection, schedule: Q01DX005 (ip), vehicle: distilled water + Tween-80",156 % of control
same,T/C,"endpoint: median survival time, dose: 60.0 mg/kg/injection, schedule: Q01DX005 (ip), vehicle: distilled water + Tween-80",162 % of control
CN(C)C1(Cc2ccccc2)c2ccccc2-c2ccc(Br)cc21 (stereo unspecified),T/C,[1],89 % of control
same,T/C,[2],87 % of control
N#CC(N)=O,T/C,[3],97 % of control
same,T/C,[4],91 % of control
same,T/C,[5],94 % of control
CN(C)CCNCc1ccc2c(c1)OCO2,T/C,"endpoint: mean survival time, dose: 25.0 mg/kg/injection, schedule: Q01DX001 (ip), vehicle: saline",102 % of control
same,T/C,"endpoint: mean survival time, dose: 50.0 mg/kg/injection, schedule: Q01DX001 (ip), vehicle: saline",102 % of control
same,T/C,[6],102 % of control
C1CCC2(CC1)SSC1(CCCCC1)S2,T/C,[7],108 % of control
same,T/C,[8],100 % of control
same,T/C,"endpoint: mean survival time, dose: 400.0 mg/kg/injection, schedule: Q01DX009 (ip), vehicle: other",110 % of control
CC(=O)C1CCC2CC3CCCCC3N(C(C)=O)C2C1 (stereo unspecified),T/C,"endpoint: mean survival time, dose: 50.0 mg/kg/injection, schedule: Q01DX001 (ip), vehicle: saline with Tween-80",107 % of control
same,T/C,[9],105 % of control
same,T/C,[10],100 % of control
CCCCNC(C)(C)C(=O)c1cccs1,T/C,"endpoint: mean survival time, dose: 25.0 mg/kg/injection, schedule: Q01DX009 (ip), vehicle: saline",94 % of control
same,T/C,"endpoint: mean survival time, dose: 50.0 mg/kg/injection, schedule: Q01DX009 (ip), vehicle: saline",98 % of control
same,T/C,"endpoint: mean survival time, dose: 100.0 mg/kg/injection, schedule: Q01DX009 (ip), vehicle: saline",100 % of control
CC(NC(=O)c1cnc2ccccc2n1)C(=O)NC(C(=O)O)C(C)C (stereo unspecified),T/C,[6],100 % of control
same,T/C,[11],100 % of control
same,T/C,[12],102 % of control
COC1OC(CO)C(O)C(O)C1O (stereo unspecified) (tested in a mixture with another compound),T/C,[9],90 % of control
same,T/C,[10],90 % of control
same,T/C,[13],92 % of control
Brc1cnc(Br)s1,T/C,"endpoint: mean survival time, dose: 13.0 mg/kg/injection, schedule: Q04DX002 (ip), vehicle: Klucel (hydroxypropylcellulose) (HPC)",92 % of control
same,T/C,"endpoint: mean survival time, dose: 20.0 mg/kg/injection, schedule: Q04DX002 (ip), vehicle: Klucel (hydroxypropylcellulose) (HPC)",98 % of control
same,T/C,"endpoint: mean survival time, dose: 30.0 mg/kg/injection, schedule: Q04DX002 (ip), vehicle: Klucel (hydroxypropylcellulose) (HPC)",98 % of control
same,T/C,"endpoint: mean survival time, dose: 45.0 mg/kg/injection, schedule: Q04DX002 (ip), vehicle: Klucel (hydroxypropylcellulose) (HPC)",95 % of control
O=C1C2=C(C(=O)C3=C1C1CCC3C1)C1CCC2C1,T/C,"endpoint: mean survival time, dose: 25.0 mg/kg/injection, schedule: Q04DX002 (ip), vehicle: saline with Tween-80",105 % of control
same,T/C,"endpoint: mean survival time, dose: 50.0 mg/kg/injection, schedule: Q04DX002 (ip), vehicle: saline with Tween-80",101 % of control
same,T/C,[14],108 % of control
Cc1ccccc1NC(=O)Oc1ccc(-c2ccccc2)cc1Cl,T/C,[14],86 % of control
same,T/C,[15],89 % of control
same,T/C,[16],93 % of control
CCN(C(=O)Nc1ccc(Cl)cc1)c1ccccc1C,T/C,[17],97 % of control
same,T/C,[18],94 % of control
same,T/C,[19],90 % of control
C1=CC2CC3(OCCO3)C2C1 (stereo unspecified),T/C,[17],98 % of control
same,T/C,[18],98 % of control
CCOc1ccc(N2C(=O)CC(Sc3ccccc3N)C2=O)cc1 (stereo unspecified),T/C,"endpoint: mean survival time, dose: 100.0 mg/kg/injection, schedule: Q01DX009 (ip), vehicle: acetone",93 % of control
same,T/C,"endpoint: mean survival time, dose: 200.0 mg/kg/injection, schedule: Q01DX009 (ip), vehicle: acetone",104 % of control
same,T/C,"endpoint: mean survival time, dose: 400.0 mg/kg/injection, schedule: Q01DX009 (ip), vehicle: acetone",112 % of control
O=C1CC(c2ccccc2)C(c2ccccc2)=C1Cl (stereo unspecified),T/C,[17],94 % of control
same,T/C,[18],98 % of control
same,T/C,[19],96 % of control
OCCOCCN1CCN(CCCN2c3ccccc3Sc3ccc(C(F)(F)F)cc32)CC1,T/C,"endpoint: mean survival time, dose: 6.25 mg/kg/injection, schedule: Q01DX009 (ip), vehicle: saline",121 % of control
[N-]=[N+]=Nc1cc(NC(=O)c2ccccc2)ccc1NC(=O)c1ccccc1,T/C,"endpoint: mean survival time, dose: 50.0 mg/kg/injection, schedule: Q01DX009 (ip), vehicle: saline with Tween-80",101 % of control
same,T/C,[17],96 % of control
same,T/C,[18],104 % of control
Nc1ncnc2c(C3OC(CO)C(O)C3O)[nH]nc12 (stereo unspecified),T/C,"endpoint: mean survival time, dose: 6.25 mg/kg/injection, schedule: Q01DX009 (ip), vehicle: saline with Tween-80",108 % of control
same,T/C,"endpoint: mean survival time, dose: 12.5 mg/kg/injection, schedule: Q01DX009 (ip), vehicle: saline with Tween-80",120 % of control
same,T/C,"endpoint: mean survival time, dose: 25.0 mg/kg/injection, schedule: Q01DX009 (ip), vehicle: saline with Tween-80",113 % of control
same,T/C,[1],101 % of control
same,T/C,[2],109 % of control
O=C1C(c2ccccc2)=C(c2ccccc2)c2ccc(Cl)cc21,T/C,[9],106 % of control
same,T/C,[10],98 % of control
same,T/C,[13],97 % of control
C/C=C1/C=CC2c3[nH]c4ccccc4c3CCN2C1 (stereo unspecified),T/C,"endpoint: mean survival time, dose: 20.0 mg/kg/injection, schedule: Q01DX001 (ip), vehicle: saline with Tween-80",93 % of control
same,T/C,"endpoint: mean survival time, dose: 40.0 mg/kg/injection, schedule: Q01DX001 (ip), vehicle: saline with Tween-80",98 % of control
same,T/C,"endpoint: mean survival time, dose: 80.0 mg/kg/injection, schedule: Q01DX001 (ip), vehicle: saline with Tween-80",90 % of control
COc1ccccc1NC(=O)Nc1ccc(Cl)cc1OC,T/C,[14],87 % of control
same,T/C,[15],94 % of control
same,T/C,[16],97 % of control
COc1cccc(C(=O)c2ccncc2C(=O)O)c1OC,T/C,"endpoint: mean survival time, dose: 12.5 mg/kg/injection, schedule: Q01DX009 (ip), vehicle: other",110 % of control
same,T/C,"endpoint: mean survival time, dose: 25.0 mg/kg/injection, schedule: Q01DX009 (ip), vehicle: other",100 % of control
same,T/C,"endpoint: mean survival time, dose: 50.0 mg/kg/injection, schedule: Q01DX009 (ip), vehicle: other",93 % of control
same,T/C,[7],96 % of control
same,T/C,[8],96 % of control
OC(c1ccccc1Cl)C(Cl)(Cl)Cl (stereo unspecified),T/C,"endpoint: mean survival time, dose: 50.0 mg/kg/injection, schedule: Q01DX009 (ip), vehicle: Klucel (hydroxypropylcellulose) (HPC)",96 % of control
same,T/C,"endpoint: mean survival time, dose: 100.0 mg/kg/injection, schedule: Q01DX009 (ip), vehicle: Klucel (hydroxypropylcellulose) (HPC)",93 % of control
same,T/C,"endpoint: mean survival time, dose: 200.0 mg/kg/injection, schedule: Q01DX009 (ip), vehicle: Klucel (hydroxypropylcellulose) (HPC)",104 % of control
NC(=O)NC(=O)C1CCCCC1C(=O)O (stereo unspecified),T/C,[6],103 % of control
same,T/C,[11],101 % of control
same,T/C,[12],109 % of control
C=CC(NC(=O)CN)C(=O)O (stereo unspecified),T/C,[9],115 % of control
same,T/C,[3],107 % of control
same,T/C,[10],105 % of control
same,T/C,[4],93 % of control
same,T/C,[13],114 % of control
same,T/C,[5],110 % of control
NC(=O)Cc1c[nH]c2cc(O)ccc12,T/C,[17],93 % of control
same,T/C,[1],97 % of control
same,T/C,[18],95 % of control
same,T/C,[2],97 % of control
same,T/C,[19],100 % of control
same,T/C,[20],95 % of control
COC(=O)C12OCC34C(CC5C(C)C6=CC(=O)OC6=CC5(C)C3C(O)C1O)OC(=O)C(O)C24 (stereo unspecified),T/C,"endpoint: median survival time, dose: 0.25 mg/kg/injection, schedule: Q01DX005 (ip), vehicle: Klucel (hydroxypropylcellulose) (HPC)",112 % of control
same,T/C,"endpoint: median survival time, dose: 0.5 mg/kg/injection, schedule: Q01DX005 (ip), vehicle: Klucel (hydroxypropylcellulose) (HPC)",114 % of control
Clc1ccc(CSCc2ccc(Cl)cc2Cl)c(Cl)c1,T/C,[17],96 % of control
same,T/C,[1],100 % of control
same,T/C,[18],100 % of control
same,T/C,[2],104 % of control
same,T/C,[19],98 % of control
same,T/C,[20],100 % of control
Cn1c(=O)c2[nH]c(NCc3ccccc3)nc2n(C)c1=O,T/C,"endpoint: mean survival time, dose: 12.5 mg/kg/injection, schedule: Q01DX005 (ip), vehicle: distilled water + Tween-80",93 % of control
same,T/C,"endpoint: mean survival time, dose: 25.0 mg/kg/injection, schedule: Q01DX005 (ip), vehicle: distilled water + Tween-80",90 % of control
same,T/C,"endpoint: mean survival time, dose: 50.0 mg/kg/injection, schedule: Q01DX005 (ip), vehicle: distilled water + Tween-80",90 % of control
same,T/C,"endpoint: mean survival time, dose: 100.0 mg/kg/injection, schedule: Q01DX005 (ip), vehicle: distilled water + Tween-80",94 % of control
same,T/C,"endpoint: mean survival time, dose: 200.0 mg/kg/injection, schedule: Q01DX005 (ip), vehicle: distilled water + Tween-80",90 % of control
OC(Cc1nc(-c2ccccc2)c(-c2ccccc2)s1)(C(F)(F)F)C(F)(F)F,T/C,[17],95 % of control
same,T/C,[1],91 % of control
same,T/C,[18],101 % of control
same,T/C,[2],95 % of control
same,T/C,[19],86 % of control
same,T/C,[20],89 % of control
